For one assay, the system named is HBV wild strain. Put plainly: Drug sensitivity test: HepG2 cells transiently transfected with wild-type HBV plasmid, intracellular replication intermediates by Southern blotting. In kind it is cell-based. The conditions noted are these: Hepatitis B virus, 168 h, HBV replication intermediates in cytoplasm, Southern blotting gray values, treated 7 days, read-out: half maximal inhibitory concentration (IC50) for the wild strain. As to the method: (§1) After recovery, Human hepatoma cell strain HepG2 grew as the adherent monolayer cells in the DMEM medium with 10% fetal bovine serum at 37° C. in 5% CO2. Every 3 to 5 days, cells were passaged one generation in a ratio of 1:3. 24 hours before transfection, cells were inoculated in an appropriate amount (about 2×10^5 per well in a 6-well plate). Preferably, cell density was 40 to 60% for transfection (also, 80 to 90% as well). 1 hour before transfection, the medium was replaced with fresh complete culture medium (2 ml per well), and incubated at 37° C. in 5% CO2. To each well, for example, saline for injection was added to 2 μg of DNA to make a total volume of 100 μl, followed by mixing gently and standing at room temperature. Saline for injection was added to 2 μl of VigoFect to make a total volume of 100 μl, followed by mixing gently and standing at room temperature for 5 minutes. The diluted VigoFect was added to the diluted DNA solution dropwise, mixed gently, followed by keeping the resultant working solution for transfection stand at room temperature for 15 minutes. The transfection working solution was mixed gently and 2 ml of medium was added thereto dropwise, mixed gently and then incubated at 37° C. in 5% CO2. 2 days after transfection, the medium was replaced and ADV were added thereto with the final concentrations of 0, 0.01, 0.1, 1, 5, 10 and 20 μM. […]

Assay [1] deals with HBV rtE218G mutant strain. Put plainly: Drug sensitivity test: HepG2 cells transiently transfected with rtE218G mutagenic HBV plasmid, intracellular replication intermediates by Southern blotting. Format: cell-based, hepatitis B virus. As for the experimental part:
as §1

Assay [2] relates to rtL180M +M204V and rtN236T. Conditions: cited from earlier work.

This is an account of results in US20120141977A1, “HEPATITIS B VIRUS MUTATION STRAIN WITH RESISTANCE TO ADEFOVIR DIPIVOXIL AND THE USES THEREOF” (priority 2009, published 2012).

As to `Nc1ncnc2c1ncn2CCOCP(=O)(O)O` [adefovir], the IC50 in the assay on HBV wild strain stood at 1.7 µM; in assay [1] (Hepatitis B virus, 168 h, HepG2 cells, HBV replication intermediates in cytoplasm, Southern blotting gray values, treated 7 days, read-out: half maximal inhibitory concentration (IC50) for the rtE218G mutant strain), 9.3 µM. Also, in assay [1] (ratio mutant IC50 / wild IC50), the “IC50 of rtE218G mutant strain relative to that of the wild strain” value was determined as 5.5 times. Also, the “decrease of sensitivity of combined three mutations compared with rtN236T single mutation” value in assay [2] was 2 folds.
